{"source": "patent US6461611B1", "about": "“Agents for the prevention of damages caused by stress conditions” (Hadasit Medical Research Services & Development Limited, priority 1998, dated 2002)", "key": {"ThR mRNA": {"system": "ThR mRNA", "test": "Northern blot of ThR mRNA level in neonatal rat ventricular myocytes under normal conditions or hypoxia", "type": "cell-based", "experimental": "RNA was prepared using TRI-Reagent (Molecular Research Center, Inc. Cincinnati) according to the manufacturer's instructions. […] For the detection of ThR a 250 nucleotide PCR product was used. The membrane was washed twice for 30 mins. at room temperature with 1×SSC containing 0.1% SDS and twice for 30 mins. at 55° C. with 0.1×SSC, containing 0.1% SDS. The blots were exposed for 2-4 days at −70° C. and the relative amounts of mRNA transcripts were analyzed by laser densitometry using an Ultrascan XL Enhanced Laser Densitometer and normalized relative to an internal β-actin controls.\nPrimary cultures of neonatal rat ventricular mycocytes were subjected to hypoxia conditions (0% oxygen, 20 torr), and the level of ThR transcripts were compared to the level of the receptor transcripts in cells under normal oxygen levels (21% oxygen). […] The 4.1 kb mRNA was detected following hybridization with full length ThR cDNA and the intensity of the bands was quantitated by densitometry and normalized to the actin transcript levels.\nThe level of ThR mRNA following hypoxia, in the presence of α-thrombin was also determined. For this, rat ventricular myocytes were subjected to serum free conditions and α-thrombin (5×10^−8M) was added for a period of 48 hours and the level of ThR was determined.\nTherefore the effect of interruption of the signaling cascase on the protection effect was analyzed. For this, calphostin C, a protein kinase C (PKC) inhibitor was added during the activation of ThR with TRAP."}, "myocytes": {"system": "myocytes", "test": "LDH activity released into the medium of normal and hypoxic myocytes", "type": "cell-based, rat", "conditions": "calphostin C 10 nM or 100 nM in the presence and absence of TRAP (10 μM)", "description": "FIG. 4B. LDH levels were measured in the medium of normal (A,B,E,G) and hypoxic (C,D,F,H) myocytes. TRAP (10 μM) was added (for 48 h) to normal cells (B,E,G) or prior to subjecting the cells to hypoxia (D,F,H). Cells were treated with calphostin C at 10 nM (E,F) or 100 nM (G,H). LDH levels were determined at 340 nm.\nCell viability under hypoxia conditions was measured by lactate dehydrogenase (LDH) assay of the medium by using diagnostic kit according to the manufacturer's instructions (Sigma, St. Louis, Mo.). Released LDH is a stable enzymatic marker that correlates with cell viability. Total LDH activity was determined in culture medium plus LDH released from the cells after treatment with 0.5% Triton X-100. All results are expressed as mean±SEM of triplicate sample (I—Weiscner, M S et al., 1998. Induction of endothelial cell PAS domain protein-1 by hypoxia: characterization and comparison with hypoxia-inducible factor-1-alpha. Blood, 92(7);2260-8. II—Brooks et al., 1998. Modulation of VEGF production by pH and glucose in retinal muller cells. Curr. Eye Res., 17(9):875-882)."}}}
{"substance": "calphostin C", "values": [{"measurement": "protection of ThR transcript level under hypoxia by TRAP", "setting": "ThR mRNA; hypoxia, TRAP activated ThR in the presence of calphostin C (1 nM, 100 nM)", "value": "showed no longer the protection"}, {"measurement": "level of ThR mRNA", "setting": "ThR mRNA; normal conditions, calphostin C 200 nM", "value": "did not affect"}, {"measurement": "level of ThR transcripts", "setting": "ThR mRNA; normal conditions, calphostin C (1 nM and 100 nM) added together with TRAP (1 μM)", "value": "did not affect"}, {"measurement": "stressed hypoxic conditions as observed by the released LDH activity", "setting": "myocytes", "value": "did not affect the stressed hypoxic conditions"}]}
